In US20250011307A1, “CRYSTALLINE FORMS OF BIARYL YAP/TAZ-TEAD PROTEIN-PROTEIN INTERACTION INHIBITORS” (Novartis AG, priority 2021, published 2025):
Structures can show the parent of a compound that is named as a salt.

Assays:
Type in all cases: physicochemical
[1] = Solid state bulk stability stress test (HPLC degradation products, color, XRPD); set-up: key to CL color: A: No change; B: Slight discoloration; C: Medium discoloration; D: Strong discoloration; details: Compound B forms
[2] = Xenon light stress test of bulk (HPLC degradation products, color, XRPD); set-up: key to CL color: A: No change; B: Slight discoloration; C: Medium discoloration; D: Strong discoloration; details: Compound B forms, Xenon light (1200 kLuxh, 25° C.)
[3] = Excipient compatibility stress test (HPLC degradation products, color); set-up: key to CL color: A: No change; B: Slight discoloration; C: Medium discoloration; D: Strong discoloration; details: Compound B forms
[4] = Solubility after equilibration at 25° C. for 24 h, with final pH and XRPD of solid residues; details: Compound B forms
[5] = Hygroscopicity (loss on drying by TGA and XRPD, as is and after storage at 92% / 80% RH); details: Compound B forms
[6] = 2 weeks 50° C./75% RH, 1% in HGC powder
[7] = 2 weeks 50° C./75% RH, 1% in HPMC powder
[8] = 2 weeks 50° C./closed, 1% in HGC powder
[9] = 2 weeks 50° C./closed, 1% in HPMC powder
[10] = pH 6.8, 50 mM phosphate buffer with 50 mM Na taurocholate
[11] = After 1 day at 92% RH, TGA temperature per cell: free form @233° C., succinate @205° C., L-malate @200° C., L-lactate @200° C.
[12] = Hygroscopicity, As is, TGA temperature per cell: free form @233° C., succinate @205° C., L-malate @200° C., L-lactate @200° C.

With CNC[C@]1(c2ccccc2)Oc2cc(F)c(Cl)c(-c3c(C(N)=O)ccc(OC)c3F)c2[C@@H]1C [Compound B L-lactate salt, 2-((2S,3S,4S)-5-Chloro-6-fluoro-3-methyl-2-((methylamino)methyl)-2-phenyl-2,3-dihydrobenzofuran-4-yl)-3-fluoro-4-methoxybenzamide] the “Bulk (XRPD)” value ([1]; 2 weeks 50° C./75% RH) was “No change”, the CL color ([1]; 2 weeks 50° C./75% RH) was “A” and the “DP[%] degradation products, Bulk (HPLC)” value ([1]; 2 weeks 50° C./75% RH) was 0.33%. The “Bulk (XRPD)” value ([1]; 2 weeks 80° C./11% RH) was “No change”, the CL color ([1]; 2 weeks 80° C./11% RH) was “A” and the “DP[%] degradation products, Bulk (HPLC)” value ([1]; 2 weeks 80° C./11% RH) was 0.31%. The “Bulk (XRPD)” value ([1]; 2 weeks 80° C./75% RH) was “No change”, the CL color ([1]; 2 weeks 80° C./75% RH) was “A” and the “DP[%] degradation products, Bulk (HPLC)” value ([1]; 2 weeks 80° C./75% RH) was 2.11%. The “Bulk amber vial (XRPD)” value ([2]; amber vial) was “No change”, the CL color ([2]; amber vial) was “A” and the “DP[%] degradation products, Bulk amber vial (HPLC)” value ([2]; amber vial) was 0.17%. The “Bulk clear quartz vial (XRPD)” value ([2]; clear quartz vial) was “No change”, the CL color ([2]; clear quartz vial) was “B” and the “DP[%] degradation products, Bulk clear quartz vial (HPLC)” value ([2]; clear quartz vial) was 0.38%. The CL color [3, 6] was “A”, the “DP[%] degradation products” value [3, 6] was 0.44% and the CL color [3, 7] was “A”. For the same compound, the “DP[%] degradation products” value [3, 7] was 0.42%, the CL color [3, 8] was “A” and the “DP[%] degradation products” value [3, 8] was 0.22%. For the same compound, the CL color [3, 9] was “A”, the “DP[%] degradation products” value [3, 9] was 0.33% and the “final pH” value ([4]; Blank FaSSIF) was “[6.53]”. For the same compound, the “final pH” value ([4]; FaSSIF V2 pH 6.5) was “[6.48]”, the “final pH” value ([4]; FeSSIF V2 pH 5.8) was “[5.79]” and the “final pH” value ([4]; SGF pH 2.0) was “[2.24]”. For the same compound, the “final pH” value ([4]; Water) was “[7.03]”, the “final pH” value ([4]; pH 1.2, 100 mM HCl) was “[1.12]” and the “final pH” value ([4]; pH 3.0, 50 mM citrate buffer) was “[3.06]”. The “final pH” value ([4]; pH 4.7, 50 mM acetate buffer) was “[4.70]”, the “final pH” value ([4]; pH 6.8, 50 mM phosphate buffer) was “[6.79]” and the “final pH” value [4, 10] was “[6.58]”. The XRPD ([5]; After 1 day at 80% RH) was “No change”, the “Loss on drying by TGA” value ([5]; After 1 day at 80% RH, @200° C.) was 1.08%@200 °C and the XRPD ([5]; After 1 day at 92% RH) was “No change”. The “Loss on drying by TGA” value [5, 11] was 1.18%@200 °C and the “Loss on drying by TGA” value [5, 12] was 0.92%@200 °C.

With CNC[C@]1(c2ccccc2)Oc2cc(F)c(Cl)c(-c3c(C(N)=O)ccc(OC)c3F)c2[C@@H]1C [Compound B L-malate salt, 2-((2S,3S,4S)-5-Chloro-6-fluoro-3-methyl-2-((methylamino)methyl)-2-phenyl-2,3-dihydrobenzofuran-4-yl)-3-fluoro-4-methoxybenzamide] the “DP[%] degradation products, Bulk (HPLC)” value ([1]; 2 weeks 80° C./11% RH) was 0.46%, the “DP[%] degradation products, Bulk (HPLC)” value ([1]; 2 weeks 80° C./75% RH) was 2.84% and the “DP[%] degradation products, Bulk amber vial (HPLC)” value ([2]; amber vial) was 0.16%. For the same compound, the “DP[%] degradation products, Bulk clear quartz vial (HPLC)” value ([2]; clear quartz vial) was 1.53%, the “DP[%] degradation products” value [3, 6] was 1.32% and the “DP[%] degradation products” value [3, 7] was 2.65%. For the same compound, the “DP[%] degradation products” value [3, 8] was 0.24%, the “DP[%] degradation products” value [3, 9] was 0.36% and the “final pH” value ([4]; Blank FaSSIF) was “[6.04]”. The “final pH” value ([4]; FaSSIF V2 pH 6.5) was “[5.95]”, the “final pH” value ([4]; FeSSIF V2 pH 5.8) was “[5.74]” and the “final pH” value ([4]; SGF pH 2.0) was “[2.17]”. The “final pH” value ([4]; Water) was “[4.34]”, the “final pH” value ([4]; pH 3.0, 50 mM citrate buffer) was “[3.04]” and the “final pH” value ([4]; pH 4.7, 50 mM acetate buffer) was “[4.62]”. The “final pH” value ([4]; pH 6.8, 50 mM phosphate buffer) was “[6.59]”, the “Loss on drying by TGA” value [5, 11] was 0.83%@200 °C and the “Loss on drying by TGA” value [5, 12] was 0.81%@200 °C.

For CNC[C@]1(c2ccccc2)Oc2cc(F)c(Cl)c(-c3c(C(N)=O)ccc(OC)c3F)c2[C@@H]1C [Compound B Succinate salt, 2-((2S,3S,4S)-5-Chloro-6-fluoro-3-methyl-2-((methylamino)methyl)-2-phenyl-2,3-dihydrobenzofuran-4-yl)-3-fluoro-4-methoxybenzamide], the “Bulk (XRPD)” value ([1]; 2 weeks 50° C./75% RH) was “No change”, the CL color ([1]; 2 weeks 50° C./75% RH) was “A” and the “DP[%] degradation products, Bulk (HPLC)” value ([1]; 2 weeks 50° C./75% RH) was 0.09%. For the same compound, the “Bulk (XRPD)” value ([1]; 2 weeks 80° C./11% RH) was “No change”, the CL color ([1]; 2 weeks 80° C./11% RH) was “A” and the “DP[%] degradation products, Bulk (HPLC)” value ([1]; 2 weeks 80° C./11% RH) was 0.08%. The “Bulk (XRPD)” value ([1]; 2 weeks 80° C./75% RH) was “No change”, the CL color ([1]; 2 weeks 80° C./75% RH) was “A” and the “DP[%] degradation products, Bulk (HPLC)” value ([1]; 2 weeks 80° C./75% RH) was 0.17%. For the same compound, the “Bulk amber vial (XRPD)” value ([2]; amber vial) was “No change”, the CL color ([2]; amber vial) was “A” and the “DP[%] degradation products, Bulk amber vial (HPLC)” value ([2]; amber vial) was 0.13%. The “Bulk clear quartz vial (XRPD)” value ([2]; clear quartz vial) was “No change”, the CL color ([2]; clear quartz vial) was “B” and the “DP[%] degradation products, Bulk clear quartz vial (HPLC)” value ([2]; clear quartz vial) was 2.38%. For the same compound, the CL color [3, 6] was “A”, the “DP[%] degradation products” value [3, 6] was 0.25% and the CL color [3, 7] was “A”. For the same compound, the “DP[%] degradation products” value [3, 7] was 0.99%, the CL color [3, 8] was “A” and the “DP[%] degradation products” value [3, 8] was 0.15%. The CL color [3, 9] was “A”, the “DP[%] degradation products” value [3, 9] was 0.17% and the “final pH” value ([4]; Blank FaSSIF) was “[6.06]”. The “Sol. (solubility)” value ([4]; Blank FaSSIF, target concentration 2 mg/mL) was over 2000 µg/mL, the “final pH” value ([4]; FaSSIF V2 pH 6.5) was “[6.06]” and the “Sol. (solubility)” value ([4]; FaSSIF V2 pH 6.5, target concentration 2 mg/mL) was over 2000 µg/mL. The “final pH” value ([4]; FeSSIF V2 pH 5.8) was “[5.72]”, the “Sol. (solubility)” value ([4]; FeSSIF V2 pH 5.8, target concentration 2 mg/mL) was over 2000 µg/mL and the “final pH” value ([4]; SGF pH 2.0) was “[2.20]”. The “Sol. (solubility)” value ([4]; SGF pH 2.0, target concentration 2 mg/mL) was over 2000 µg/mL, the “final pH” value ([4]; Water) was “[4.97]” and the “Sol. (solubility)” value ([4]; Water, target concentration 2 mg/mL) was over 2000 µg/mL. The “final pH” value ([4]; pH 1.2, 100 mM HCl) was “[1.17]”, the “Sol. (solubility)” value ([4]; pH 1.2, 100 mM HCl, target concentration 2 mg/mL) was over 2000 µg/mL and the “final pH” value ([4]; pH 3.0, 50 mM citrate buffer) was “[3.09]”. For the same compound, the “Sol. (solubility)” value ([4]; pH 3.0, 50 mM citrate buffer, target concentration 2 mg/mL) was over 2000 µg/mL, the “final pH” value ([4]; pH 4.7, 50 mM acetate buffer) was “[4.70]” and the “Sol. (solubility)” value ([4]; pH 4.7, 50 mM acetate buffer, target concentration 2 mg/mL) was over 2000 µg/mL. For the same compound, the “final pH” value ([4]; pH 6.8, 50 mM phosphate buffer) was “[6.64]”, the “final pH” value [4, 10] was “[6.43]” and the “Sol. (solubility)” value ([4]; pH 6.8, 50 mM phosphate buffer with 50 mM Na taurocholate, target concentration 2 mg/mL) was over 2000 µg/mL. For the same compound, the “Sol. (solubility)” value ([4]; pH 6.8, 50 mM phosphate buffer, target concentration 2 mg/mL) was over 2000 µg/mL, the “Loss on drying by TGA” value [5, 11] was 0.67%@205 °C and the “Loss on drying by TGA” value [5, 12] was 0.56%@205 °C.
